“Also recorded” adds a separate entry of the source. Values belong to the molecule of their own block, whether it stands above or below them.
Key:
[1] = test system: CRE-luciferase reporter gene in human neuroblastoma cells; experiment: CRE-luciferase reporter gene assay, forskolin-stimulated human neuroblastoma cells; format: cell-based; settings: for effect on CRE-luciferase expression: FIG. 2, in words; for increase of forskolin-induced CRE-luciferase expression above forskolin alone: drug for two hours before suboptimal dose of forskolin, assayed 4 hours after forskolin stimulation (FIG. 2A)
Source text: FIG. 2A is a bar graph representation depicting results showing that the PDE4 inhibitors rolipram and HT0712 enhance forskolin-induced gene expression in human neuroblastoma cells. Relative light units (RLU) emitted from luciferase were quantified in human neuroblastoma cells stably transfected with a CRE-luciferase reporter gene and exposed to vehicle alone or drug (HT0712 or rolipram) for two hours before stimulation by a suboptimal dose of forskolin.
A high-throughput drug screen was accomplished using human neuroblastoma cells, which were stably transfected with a luciferase reporter gene driven by a CRE (cAMP response element) promoter (a drug screen for enhancers of CREB function) (Scott, R. et al., J. Mol. Neurosci., 19:171-177 (2002)). Cells were exposed to drug for two hours and then stimulated with a suboptimal dose of forskolin for another four hours. […] Among the dozens of confirmed hits for several molecular targets identified from this screen, inhibitors of PDE4 were numerous.

[2] = test system: somatostatin, an endogenous cAMP-responsive gene, in human neuroblastoma cells; experiment: Real-time PCR of somatostatin expression, forskolin-stimulated human neuroblastoma cells; format: cell-based; settings: for effect on expression of CRE-dependent endogenous gene somatostatin: FIG. 2, in words; for increase in forskolin-induced expression of somatostatin: real-time PCR, ΔCt above vehicle alone (FIG. 2B)
Source text: FIG. 2B is a bar graph representation depicting results showing that the PDE4 inhibitors rolipram and HT0712 enhance forskolin-induced gene expression in human neuroblastoma cells. Real-time PCR was used to quantify expression of somatostatin, an endogenous cAMP-responsive gene. Expression levels induced by forskolin or by forskolin+drug are quantified as differences in threshold cycle number (ΔCt) above vehicle alone control groups.

[3] = test system: CBP^+/− mutant mice; experiment: Object recognition task, long-term memory in CBP+/− mutant mice; format: in vivo; settings: for memory retention, drug-treated CBP+/− mutants versus drug-treated wildtype mice / 24 hour memory retention (Discrimination Index) versus vehicle-injected mutants: 0.1 mg/kg i.p. 20 minutes before 15 minute training, tested 24 hours later (FIG. 4); for 24 hour memory retention (Discrimination Index) versus vehicle-injected mutants: p<0.05; for 24 hour memory retention versus vehicle-alone group: 3.5 minute training (FIG. 6)
Source text: (§1) Generation of CBP^+/- mice was described by Oike et al. (Human Molecular Genetics, 8:387-396 (1999)). […] For these studies, animals were generated by crossing CBP^+/- mice to C57BL/6 females (Jackson laboratory). The mice were genotyped with a PCR protocol as described previously (Oike, Y. et al., Human Molecular Genetics, 8:387-396 (1999)). Age-(12 to 14 weeks old by the time of handling) and gender-matched mutant mice and wildtype littermates were used for all experiments. Mice were handled for 3-5 minutes for 5 days. […] The first set was used for experiments summarized in FIGS. 3 and 4 (n=10 per genotype). The second set was used for the experiment summarized in FIG. 5 (wildtype mice, n=20). For each experiment, the same set of animals was used repeatedly with different (new) sets of objects for each repetition. […] (iii) each experimental condition was replicated 2-4 independent times, and replicate days were added to generate final number of subjects. Five-to-eight sessions were performed on each set of mice. Each mouse was trained and tested no more than once per week and with a one-week interval between testing. In experiments with drug-injections (see below), vehicle-injected mice and high/low-dose-injected mice, were counterbalanced. In each experiment, the experimenter was unaware (blind) to the treatment of the subjects during training and testing. […] Mice were presented with two objects, one of which was used during training, and thus was 'familiar' and the other of which was novel (e.g. a small pyramid-shape object). The test objects were divided into ten sets of two “training” plus on “testing” objects, and a new set of objects was used for each training session. After each experimental subject, the apparatus and the objects were cleaned with 90% ethanol, dried and ventilated for a few minutes. […] In addition, vehicle- and drug-injected mice were counterbalanced from experiment to experiment. Such design allowed at least two weeks wash-out time between repeated usages of high doses. […] The experiments were videotaped via an overhead video camera system. Types were reviewed by a blinded observer and the following behavioral parameters were determined: time of exploration of an each object; the total time of exploration of the objects; number of approaches to the objects; and time (latency) to first approach to an object. The discrimination index was determined as described previously (Ennaceur, A. & Aggleton, J. P., Behav. Brain Res., 88:181-193 (1997)). The data were analyzed by Student's unpaired t test using statistical software package ([…] Institute, Inc). All values in the text and figure legends are expressed as mean±SEM.

[4] = Half-life (wash-out consideration); settings: mouse, in vivo
Procedure: HT0712 was administered intraperitoneally (i.p.) at doses: 0.001 mg/kg; 0.005 mg/kg; 0.01 mg/kg; 0.05 mg/kg; 0.1 mg/kg, 0.15 mg/kg and 0.2 mg/kg. Rolipram (Sigma) was administered i.p. at dose 0.1 mg/kg. Drug compounds were injected with one week interval to allow sufficient wash-out time (the half-life for HT0712 and Rolipram <3 hours). In addition, vehicle- and drug-injected mice were counterbalanced from experiment to experiment. Such design allowed at least two weeks wash-out time between repeated usages of high doses.

[5] = test system: normal, young adult mice; settings: delivered directly to the hippocampus, intraventricularly or intraperitoneally (Scott et al. 2002); cited from earlier work
[6] = test system: aged rats; settings: Barad et al. 1998; cited from earlier work
[7] = test system: wildtype mice; experiment: Object recognition task, long-term memory in wildtype mice; format: in vivo; settings: for 24 hour memory retention versus vehicle-alone group: 3.5 minute training (FIG. 6)
Source text: as §1

[8] = i.p., 3.5 minute training, 24-hour memory (FIG. 6)

half-life [4]: < 3 h
Compound: COc1ccc(C2CNC(=O)C2)cc1OC1CCCC1 (stereo not drawn) [rolipram, reference compound]
effect on CRE-luciferase expression [1]: robust effects
increase of forskolin-induced CRE-luciferase expression above forskolin alone [1]: 1.9 fold
effect on expression of CRE-dependent endogenous gene somatostatin [2]: robust effects
increase in forskolin-induced expression of somatostatin [2]: 2.3 fold
memory retention, drug-treated CBP+/− mutants versus drug-treated wildtype mice [3]: did not differ significantly
24 hour memory retention (Discrimination Index) versus vehicle-injected mutants [3]: restored 24-hour memory; also recorded: significantly higher
long-term memory formation after contextual fear conditioning [5]: enhanced
age-dependent loss of hippocampal-dependent memory and cellular long-term potentiation [6]: ameliorates

half-life [4]: < 3 h
Compound: COc1ccc([C@H]2CNC(=O)[C@H](Cc3cccc(C)c3)C2)cc1OC1CCCC1 [HT0712, (3S,5S)-5-(3-cyclopentyloxy-4-methoxy-phenyl)-3-(3-methyl-benzyl)-piperidin-2-one]
effect on CRE-luciferase expression [1]: robust effects
increase of forskolin-induced CRE-luciferase expression above forskolin alone [1]: 1.9 fold
effect on expression of CRE-dependent endogenous gene somatostatin [2]: robust effects
increase in forskolin-induced expression of somatostatin [2]: 4.6 fold
24 hour memory retention versus vehicle-alone group ([3]; 0.05 mg/kg i.p., p=0.79): did not; also recorded: failed to enhance memory
memory retention, drug-treated CBP+/− mutants versus drug-treated wildtype mice [3]: did not differ significantly
24 hour memory retention (Discrimination Index) versus vehicle-injected mutants [3]: restored 24-hour memory; also recorded: significantly higher
24 hour memory retention versus vehicle-alone group ([3]; 0.10 mg/kg i.p., p<0.0001): higher
24 hour memory retention versus vehicle-alone group ([3]; 0.15 mg/kg i.p., p<0.0001): higher
24 hour memory retention versus vehicle-alone group ([3]; 0.2 mg/kg i.p., p<0.0001): higher
dose at which memory enhancement was first seen (initial effective dose) [3, 8]: 0.10 mg/kg
peak effective dose [3, 8]: 0.15 mg/kg
24 hour memory retention versus vehicle alone ([7]; 0.05 mg/kg i.p. 20 min before 3.5 minute training (FIG. 5), p<0.05): significantly increased; also recorded: significantly higher
24 hour memory retention versus vehicle-alone group ([7]; 0.05 mg/kg i.p., p<0.005): significant enhancement; also recorded: higher
24 hour memory retention versus vehicle alone ([7]; 0.10 mg/kg i.p. 20 min before 3.5 minute training (FIG. 5), p<0.0001): significantly increased; also recorded: significantly higher
24 hour memory retention versus vehicle-alone group ([7]; 0.10 mg/kg i.p., p<0.0001): higher
24 hour memory retention versus vehicle alone ([7]; 0.15 mg/kg i.p. 20 min before 3.5 minute training (FIG. 5), p<0.001): significantly increased; also recorded: significantly higher
24 hour memory retention versus vehicle-alone group ([7]; 0.15 mg/kg i.p., p<0.005): higher
24 hour memory retention versus vehicle-alone group ([7]; 0.2 mg/kg i.p., p<0.005): higher
24 hour memory retention versus vehicle alone ([7]; 0.50 mg/kg i.p., 3.5 minute training (FIG. 5)): failed to produce any memory enhancement
24 hour memory retention versus vehicle alone ([7]; below 0.05 mg/kg i.p., 3.5 minute training (FIG. 5)): failed to produce any memory enhancement
peak effective dose [7, 8]: 0.10 mg/kg
long-term memory formation after contextual fear conditioning [5]: enhanced

From patent US7868015B2, “Phosphodiesesterase 4 inhibitors for the treatment of a cognitive deficit” (Cold Spring Harbor Laboratory, priority 2000, dated 2011)
